Seven compounds from PubChem BioAssay (NCI) can be followed below.

Some test systems named below: HS 578T breast; NCI-H226 lung; HOP-92 NSCLC; COLO 205 colon; SN12C renal; UACC-62 melanoma; HCC-2998 colon; OVCAR-3 ovarian; NCI-H460 lung; NCI-H23 lung.
What all share (test): growth of human tumour cells (NCI), 48 h

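48-hour exposure; five concentrations; linearly interpolated endpoints. At the GI50, growth is halved. TGI: total growth inhibition.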 A value given as a limit tells only on which side of the number the result lay.

For the compound `O=C1c2cccnc2-c2nc(-c3ccccn3)cc3c2c1nc1ccccc13`, the GI50 in the assay on HS 578T breast was 0.705 µM; with NCI-H226 lung it was 0.936 µM; in the assay with HOP-92 NSCLC, 0.241 µM; in the assay on COLO 205 colon, 0.804 µM; in the assay on SN12C renal, 0.21 µM; in the assay with UACC-62 melanoma, 0.191 µM. The GI50 in the assay on HCC-2998 colon is 0.412 µM; with OVCAR-3 ovarian it was 0.161 µM; in the assay on NCI-H460 lung it was 0.0616 µM; in the assay with NCI-H23 lung, 0.374 µM. In addition, the TGI in the assay on HS 578T breast is 4.65 µM; in the assay with NCI-H226 lung, 2.89 µM; in the assay with HOP-92 NSCLC it was 0.729 µM; in the assay on COLO 205 colon, 3.35 µM; in the assay on SN12C renal, 1.19 µM; with UACC-62 melanoma, 0.63 µM. Further, the TGI amounted to 1.48 µM with HCC-2998 colon, 0.309 µM in the assay on OVCAR-3 ovarian, 0.268 µM with NCI-H460 lung and 1.78 µM in the assay on NCI-H23 lung.

As for `O=C1NC(=O)C2=C1CCC2O` (stereo not given), the TGI with HS 578T breast, in the assay on NCI-H226 lung, in the assay on HOP-92 NSCLC, in the assay with COLO 205 colon, in the assay with SN12C renal and in the assay on UACC-62 melanoma was greater than 100 µM in each case. Also, the TGI with HCC-2998 colon, in the assay with OVCAR-3 ovarian, with NCI-H460 lung and in the assay with NCI-H23 lung was greater than 100 µM in each case.

In the case of `O=C(CCl)Nc1ccccc1SCc1cc(Cl)cc2c1OCOC2`, the GI50 is 6.25 µM in the assay on HS 578T breast; 11.2 µM in the assay with NCI-H226 lung; 3.17 µM in the assay on HOP-92 NSCLC; 17.3 µM in the assay with COLO 205 colon; 6.69 µM in the assay with SN12C renal; 5.44 µM in the assay with UACC-62 melanoma. Further, the GI50 was 16.6 µM in the assay with HCC-2998 colon, 2.08 µM with OVCAR-3 ovarian, 18.4 µM with NCI-H460 lung and 9.58 µM in the assay on NCI-H23 lung. The TGI in the assay with HS 578T breast came to 38.9 µM; in the assay on NCI-H226 lung it was 35.6 µM; in the assay on HOP-92 NSCLC, 17.9 µM; in the assay with COLO 205 colon, 35.5 µM; with SN12C renal, 21 µM; with UACC-62 melanoma, 19.9 µM. Also, the TGI with HCC-2998 colon worked out at 31.5 µM; in the assay with OVCAR-3 ovarian it was 4.24 µM; in the assay on NCI-H460 lung, 38.1 µM; in the assay on NCI-H23 lung, 31.2 µM.

For `O=C1C(Cl)=C(Oc2ccccc2)C(=O)c2ccccc21`, the GI50 in the assay on HS 578T breast is 2.62 µM; in the assay on NCI-H226 lung it was 12.1 µM; with HOP-92 NSCLC, 1.8 µM; in the assay on COLO 205 colon, 1.68 µM; in the assay with SN12C renal, 11.2 µM; with UACC-62 melanoma it was 3.46 µM. Moreover, the GI50 in the assay on HCC-2998 colon was 4.28 µM; with OVCAR-3 ovarian it was 1.83 µM; with NCI-H460 lung it was 5.57 µM; with NCI-H23 lung, 9.49 µM. Besides, the TGI came to 13 µM with HS 578T breast; 28.7 µM in the assay with NCI-H226 lung; 4.56 µM in the assay with HOP-92 NSCLC; 3.24 µM in the assay with COLO 205 colon; 29.5 µM with SN12C renal; 11.7 µM in the assay with UACC-62 melanoma. Also, the TGI in the assay with HCC-2998 colon was found to be 15.9 µM; with OVCAR-3 ovarian, 3.42 µM; with NCI-H460 lung, 23.1 µM; with NCI-H23 lung, 24.5 µM.

Consider `CCOC(=O)Oc1c(OC)cc(C(=O)c2ccc(OC)c(OC(=O)CCl)c2OC)cc1OC`, for which the GI50 was 0.556 µM with HS 578T breast; 4.38 µM in the assay on NCI-H226 lung; 1.78 µM with HOP-92 NSCLC; 9.57 µM in the assay with COLO 205 colon; 3.39 µM with SN12C renal; 2.67 µM with UACC-62 melanoma. Further, the GI50 is 3.36 µM with HCC-2998 colon, 0.414 µM in the assay with OVCAR-3 ovarian, 2.09 µM in the assay with NCI-H460 lung and 3.86 µM with NCI-H23 lung. The TGI in the assay on HS 578T breast was greater than 100 µM; in the assay with NCI-H226 lung, 37.9 µM; with HOP-92 NSCLC, greater than 100 µM; in the assay on COLO 205 colon, 66.7 µM; in the assay with SN12C renal it was greater than 100 µM; in the assay with UACC-62 melanoma it was greater than 100 µM. In addition, the TGI is greater than 100 µM with HCC-2998 colon, 23 µM in the assay on OVCAR-3 ovarian, 44.9 µM in the assay with NCI-H460 lung and greater than 100 µM with NCI-H23 lung.

`Clc1ccc(N2COOC3(OOC2)C2CC4CC(C2)CC3C4)cc1`: the GI50 in the assay with HS 578T breast was 8.99 µM; with NCI-H226 lung it was greater than 61.2 µM; in the assay with HOP-92 NSCLC, 14.9 µM; in the assay with COLO 205 colon it was 12.7 µM; in the assay on SN12C renal, 5.35 µM; in the assay with UACC-62 melanoma, 1.01 µM. Besides, the GI50 was greater than 24.4 µM in the assay with HCC-2998 colon, 13.2 µM in the assay on OVCAR-3 ovarian, 1.57 µM with NCI-H460 lung and 11.5 µM in the assay on NCI-H23 lung. Also, the TGI in the assay with HS 578T breast was greater than 100 µM; in the assay with NCI-H226 lung, greater than 100 µM; in the assay with HOP-92 NSCLC, 43.5 µM; in the assay with COLO 205 colon, 90.8 µM; with SN12C renal, greater than 56.9 µM; with UACC-62 melanoma, greater than 43 µM. The TGI with HCC-2998 colon is greater than 100 µM; in the assay on OVCAR-3 ovarian, 39.1 µM; with NCI-H460 lung, 9.27 µM; in the assay with NCI-H23 lung, 31.6 µM.

In the case of `O=C1CC2(CCCc3sccc32)C(=O)N1` (stereo not given), the TGI in the assay on HS 578T breast, in the assay with NCI-H226 lung, with HOP-92 NSCLC, in the assay with COLO 205 colon, with SN12C renal and in the assay with UACC-62 melanoma was greater than 100 µM in each case. For the same compound, the TGI in the assay with HCC-2998 colon, in the assay with OVCAR-3 ovarian, in the assay on NCI-H460 lung and with NCI-H23 lung was greater than 100 µM each time.
